# Paper PMC7083880 (Nature Communications, 2020)
# What was measured:
# [1] = system: L5178Y TK+/− mouse lymphoma cells
# Protocol: The idea was to reproduce the metabolizing conditions prevailing in the liver.
# This was followed by a 24-h recovery period when the experiment was performed in the presence of Aroclor-induced rat liver S9 metabolizing mix (at 2% final concentration). […] The nuclei were then stained with Giemsa before counting the micronuclei among 1000 mononucleated cells.
# HeLa cells [2] = assay: Toxicity assay: adenylate kinase activity in culture medium; assay type: cell-based, human; details: 24 h; for Adenylate kinase activity in culture medium: STS 2µM
# Protocol: The toxicity assay was performed 24 h after starting cell treatment. The cell culture supernatant was centrifuged at 6000×g for 10 min to pellet cells and cell debris. One-twentieth of the supernatant was then used to measure adenylate kinase activity according to the supplier’s protocol (Lonza Biosciences, Basel, Switzerland).
# HeLa cells [3] = assay: MTT colorimetric toxicity assay; assay type: cell-based; details: STS 2µM, 24 h
# Protocol: incubated in cell culture medium containing 0.5 mg/ml 3-(4,5-dimethylthiazol-2-yl)-2,5-diphenyltetrazolium bromide (MTT) for 2 h at 37°C. The cells were then incubated for 30 min at 37°C in the solubilization solution (isopropanol/1N HCl 23:1) before collecting the supernatant to measure the absorbance at 540 and 620 nm for the background.
# Supplementary Figure 4. […] (A) HeLa cells were incubated with propidium iodide after […]
# staurosporine (STS). (B) HeLa cells were incubated with MTT after treatment for 24 h with […]
# The results presented are representative of two independent experiments at least. Error bar= S.D., p-values (p) were calculated using Student's t-test. Source data are provided as a Source Data file.
# (also on this page, place not known: % dead Colorimetry measure (au) cells of) […]
# nonsense mutations = system: nonsense mutations; parameters: method as in PMID 28096517; details: cited from earlier work
structure (smiles),measurement,setting,value
"O=P1(N(CCCl)CCCl)NCCCO1 (centres unmarked) [Cyclopho sphamide, cyclophosphamide]",Micronucleated cells,[1],60
"CN[C@@H]1C[C@H]2O[C@@](C)([C@@H]1OC)n1c3ccccc3c3c4c(c5c6ccccc6n2c5c31)C(=O)NC4 [STS, staurosporine, reference compound]","Release of adenylate kinase, in words",HeLa cells [2],released adenylate kinase
same,Adenylate kinase activity in culture medium,HeLa cells [2]; average,1755878
same,Adenylate kinase activity in culture medium,HeLa cells [2]; experiment 1,1822755
same,Adenylate kinase activity in culture medium,HeLa cells [2]; experiment 2,1498272
same,Adenylate kinase activity in culture medium,HeLa cells [2]; experiment 3,1946608
same,MTT colorimetry measure,HeLa cells [3]; average,0.183 au
same,MTT colorimetry measure,HeLa cells [3]; experiment 1,0.0455 au
same,MTT colorimetry measure,HeLa cells [3]; experiment 2,0.1825 au
same,MTT colorimetry measure,HeLa cells [3]; experiment 3,0.321 au
"Nc1ncnc(N[C@@H]2O[C@H](CO)[C@@H](O)[C@H]2O)c1[N+](=O)[O-] [clitocine, (2R,3R,4S,5R)-2-[(6-amino-5-nitropyrimidin-4-yl)amino]-5-(hydroxymethyl)oxolane-3,4-diol]",Nonsense mutation correction compared to G418,nonsense mutations,correct nonsense mutations more efficiently than G418
